Source: patent US20240398793A1, “Methods of Treating Lymphedema” (Celltaxis, LLC, priority 2021, published 2024)
pIC50: −log10 of the molar value.

Legend:
[1] = test system: sputum white blood cells and neutrophils; test: Sputum cell counts in CF patients; type: in vivo, human
[2] = Preclinical phototoxicity studies
neutrophil swarming = test: Neutrophil swarming in vitro in response to CF sputum factors; type: cell-based; conditions: 48 ng/mL; factors present in human CF sputum
[3] = test system: patients with cystic fibrosis; test: Phase 2 study in adult CF patients, 48 weeks, efficacy; type: in vivo, human; conditions: for rate of pulmonary exacerbations: 48 weeks of treatment
[4] = Most common treatment emergent adverse events, safety population
LTA4H epoxide hydrolase = LTA4H epoxide hydrolase (Homo sapiens (Human), UniProt P09960); conditions: read-out: LTA4H epoxide hydrolase potency; Bhatt et al. (2017); cited from earlier work
Sequence of LTA4H epoxide hydrolase (P09960 whole entry): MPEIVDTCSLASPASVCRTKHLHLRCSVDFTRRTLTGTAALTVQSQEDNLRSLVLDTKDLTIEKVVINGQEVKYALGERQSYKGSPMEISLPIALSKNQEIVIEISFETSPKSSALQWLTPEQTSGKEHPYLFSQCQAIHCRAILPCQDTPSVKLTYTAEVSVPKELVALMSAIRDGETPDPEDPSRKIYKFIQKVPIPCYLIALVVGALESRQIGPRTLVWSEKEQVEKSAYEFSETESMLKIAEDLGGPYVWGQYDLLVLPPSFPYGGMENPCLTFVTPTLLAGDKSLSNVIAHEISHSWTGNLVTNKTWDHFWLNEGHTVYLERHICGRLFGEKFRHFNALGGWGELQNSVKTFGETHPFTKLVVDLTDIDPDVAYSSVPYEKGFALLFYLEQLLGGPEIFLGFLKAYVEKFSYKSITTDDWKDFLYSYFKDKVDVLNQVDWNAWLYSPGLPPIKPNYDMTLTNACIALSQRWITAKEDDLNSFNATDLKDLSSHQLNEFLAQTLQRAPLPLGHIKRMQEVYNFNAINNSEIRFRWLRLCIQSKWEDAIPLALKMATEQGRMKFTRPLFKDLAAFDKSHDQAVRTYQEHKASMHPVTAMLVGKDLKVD

SMILES: O=C(O)c1ccc(CN2C[C@@H]3C[C@H]2CN3Cc2ccc(Oc3ccc(-c4ncco4)cc3)cc2)cc1 [Acebilustat, 4-{[(1S,4S)-5-({4-[4-oxazol-2-yl-phenoxy]phenyl}methyl)-2,5-diazabicyclo[2.2.1]heptan-2-yl]methyl}benzoic acid]
- sputum neutrophils decrease ([1]; 100 mg group): 65%
- sputum white blood cells decrease from Baseline ([1]; 100 mg group): 60%
- sputum neutrophils decrease ([1]; all treated (50 to 100 mg)): 34%
- sputum white blood cells decrease from Baseline ([1]; all treated subjects (50 or 100 mg)): 31%
- phototoxic effects [2]: no potential for phototoxic effects
- reduction of neutrophil swarming (neutrophil swarming): 80%
- change from baseline in percent predicted FEV1 versus placebo ([3]; 48-week Phase 2 CF study, primary endpoint): no statistically significant difference
- time to first pulmonary exacerbation ([3]; CF patients, 48 weeks, secondary efficacy analysis): concordant numerical benefit
- risk of infection ([3]; adult CF patients, 48 weeks): no evidence of increased risk of infection
- rate of pulmonary exacerbations ([3]; adult CF patients): concordant numerical benefit
- rate of pulmonary exacerbations ([3]; adult CF patients, listed as acebilustat): showed promise in reducing the rate of pulmonary exacerbations
- Abdominal pain TEAE, % ([4]; 50 mg (N = 67)): (4.5%)
- Abdominal pain upper TEAE, % ([4]; 50 mg (N = 67)): (10.4%)
- Arthralgia TEAE, % ([4]; 50 mg (N = 67)): (4.5%)
- Back pain TEAE, % ([4]; 50 mg (N = 67)): (6.0%)
- Chest discomfort TEAE, % ([4]; 50 mg (N = 67)): (4.5%)
- Constipation TEAE, % ([4]; 50 mg (N = 67)): (6.0%)
- Cough TEAE, % ([4]; 50 mg (N = 67)): (40.3%)
- Diarrhoea TEAE, % ([4]; 50 mg (N = 67)): (13.4%)
- Distal intestinal obstruction syndrome TEAE, % ([4]; 50 mg (N = 67)): (6.0%)
- Dyspnoea TEAE, % ([4]; 50 mg (N = 67)): (9.0%)
- Epistaxis TEAE, % ([4]; 50 mg (N = 67)): (6.0%)
- Fatigue TEAE, % ([4]; 50 mg (N = 67)): (13.4%)
- Forced expiratory volume decreased TEAE, % ([4]; 50 mg (N = 67)): (6.0%)
- Gastroenteritis TEAE, % ([4]; 50 mg (N = 67)): (1.5%)
- Gastrointestinal disorders TEAE, % ([4]; 50 mg (N = 67)): (40.3%)
- General disorders and administration site conditions TEAE, % ([4]; 50 mg (N = 67)): (35.8%)
- Haemoptysis TEAE, % ([4]; 50 mg (N = 67)): (25.4%)
- Headache TEAE, % ([4]; 50 mg (N = 67)): (23.9%)
- Infections and infestations TEAE, % ([4]; 50 mg (N = 67)): (88.1%)
- Influenza TEAE, % ([4]; 50 mg (N = 67)): (4.5%)
- Investigations TEAE, % ([4]; 50 mg (N = 67)): (29.9%)
- Musculoskeletal and connective tissue disorders TEAE, % ([4]; 50 mg (N = 67)): (19.4%)
- Nasopharyngitis TEAE, % ([4]; 50 mg (N = 67)): (16.4%)
- Nausea TEAE, % ([4]; 50 mg (N = 67)): (7.5%)
- Nervous system disorders TEAE, % ([4]; 50 mg (N = 67)): (32.8%)
- No. of subjects with at least one TEAE, % ([4]; 50 mg (N = 67)): (100.0%)
- Oropharyngeal pain TEAE, % ([4]; 50 mg (N = 67)): (10.4%)
- Paranasal sinus hypersecretion TEAE, % ([4]; 50 mg (N = 67)): (7.5%)
- Pyrexia TEAE, % ([4]; 50 mg (N = 67)): (9.0%)
- Rales TEAE, % ([4]; 50 mg (N = 67)): (1.5%)
- Rash TEAE, % ([4]; 50 mg (N = 67)): (4.5%)
- Respiratory, thoracic and mediastinal disorders TEAE, % ([4]; 50 mg (N = 67)): (70.1%)
- Rhinitis TEAE, % ([4]; 50 mg (N = 67)): (6.0%)
- Rhinorrhoea TEAE, % ([4]; 50 mg (N = 67)): (9.0%)
- Sinusitis TEAE, % ([4]; 50 mg (N = 67)): (4.5%)
- Skin and subcutaneous tissue disorders TEAE, % ([4]; 50 mg (N = 67)): (11.9%)
- Sputum abnormal TEAE, % ([4]; 50 mg (N = 67)): (6.0%)
- Sputum increased TEAE, % ([4]; 50 mg (N = 67)): (19.4%)
- Abdominal pain TEAE, % ([4]; 100 mg (N = 66)): (6.1%)
- Abdominal pain upper TEAE, % ([4]; 100 mg (N = 66)): (4.5%)
- Alanine aminotransferase increased TEAE, % ([4]; 100 mg (N = 66)): (6.1%)
- Arthralgia TEAE, % ([4]; 100 mg (N = 66)): (7.6%)
- Back pain TEAE, % ([4]; 100 mg (N = 66)): (1.5%)
- Chest discomfort TEAE, % ([4]; 100 mg (N = 66)): (12.1%)
- Constipation TEAE, % ([4]; 100 mg (N = 66)): (1.5%)
- Cough TEAE, % ([4]; 100 mg (N = 66)): (43.9%)
- Diarrhoea TEAE, % ([4]; 100 mg (N = 66)): (7.6%)
- Distal intestinal obstruction syndrome TEAE, % ([4]; 100 mg (N = 66)): (3.0%)
- Dyspnoea TEAE, % ([4]; 100 mg (N = 66)): (7.6%)
- Epistaxis TEAE, % ([4]; 100 mg (N = 66)): (4.5%)
- Fatigue TEAE, % ([4]; 100 mg (N = 66)): (13.6%)
- Forced expiratory volume decreased TEAE, % ([4]; 100 mg (N = 66)): (7.6%)
- Gastroenteritis TEAE, % ([4]; 100 mg (N = 66)): (6.1%)
- Gastrointestinal disorders TEAE, % ([4]; 100 mg (N = 66)): (30.3%)
- General disorders and administration site conditions TEAE, % ([4]; 100 mg (N = 66)): (36.4%)
- Haemoptysis TEAE, % ([4]; 100 mg (N = 66)): (18.2%)
- Headache TEAE, % ([4]; 100 mg (N = 66)): (13.6%)
- Infections and infestations TEAE, % ([4]; 100 mg (N = 66)): (90.9%)
- Influenza TEAE, % ([4]; 100 mg (N = 66)): (7.6%)
- Investigations TEAE, % ([4]; 100 mg (N = 66)): (34.8%)
- Musculoskeletal and connective tissue disorders TEAE, % ([4]; 100 mg (N = 66)): (16.7%)
- Nasopharyngitis TEAE, % ([4]; 100 mg (N = 66)): (21.2%)
- Nausea TEAE, % ([4]; 100 mg (N = 66)): (12.1%)
- Nervous system disorders TEAE, % ([4]; 100 mg (N = 66)): (22.7%)
- No. of subjects with at least one TEAE, % ([4]; 100 mg (N = 66)): (100.0%)
- Oropharyngeal pain TEAE, % ([4]; 100 mg (N = 66)): (13.6%)
- Pyrexia TEAE, % ([4]; 100 mg (N = 66)): (12.1%)
- Rales TEAE, % ([4]; 100 mg (N = 66)): (6.1%)
- Rash TEAE, % ([4]; 100 mg (N = 66)): (9.1%)
- Respiratory, thoracic and mediastinal disorders TEAE, % ([4]; 100 mg (N = 66)): (75.8%)
- Rhinitis TEAE, % ([4]; 100 mg (N = 66)): (4.5%)
- Rhinorrhoea TEAE, % ([4]; 100 mg (N = 66)): (7.6%)
- Sinusitis TEAE, % ([4]; 100 mg (N = 66)): (10.6%)
- Skin and subcutaneous tissue disorders TEAE, % ([4]; 100 mg (N = 66)): (24.2%)
- Sputum increased TEAE, % ([4]; 100 mg (N = 66)): (10.6%)
- pIC50 (LTA4H epoxide hydrolase): 7.92
